The supplement of paper PMC4862054

Key:
Conditions in all cases: incubation time: 72 h
CAL-120 [1] = experiment: normalised response (% of control), CellTox Green; higher = less cell death (100 = DMSO, 0 = benzethonium chloride kill control)
In short: (§1)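 Plates were normalised with 0.1 % DMSO as 100 and a positive kill control as 0. Breast cancer cell lines in 20 µl suspension had been seeded into 384-well plates with compound at 5 concentrations in 10-fold steps over a compound-specific 10,000-fold range, incubated 72 h, and read for CellTox Green fluorescence (485/520 nm) followed by CellTiter-Glo luminescence. Each value is the normalised signal at a single concentration.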

HCC1599 [2] = experiment: as above
In short: as §1

HDQ-P1 [3] = experiment: as above
In short: as §1

MDA-MB-453 [4] = experiment: as above
In short: as §1

CAL-51 [5] = experiment: as above
In short: as §1

CAL-85-1 [6] = experiment: as above
In short: as §1

BT-474 [7] = experiment: as above
In short: as §1

MDA-MB-436 [8] = experiment: as above
In short: as §1

BT-549 [9] = experiment: as above
In short: as §1

MFM-223 [10] = experiment: as above
In short: as §1

DU-4475 [11] = experiment: as above
In short: as §1

HCC1143 [12] = experiment: as above
In short: as §1

MDA-MB-231 [13] = experiment: as above
In short: as §1

MCF-10A [14] = experiment: as above
In short: as §1

Hs578T [15] = experiment: as above
In short: as §1

MDA-MB-468 [16] = experiment: as above
In short: as §1

CAL-148 [17] = experiment: as above
In short: as §1

CAL-120 [18] = experiment: normalised response (% of control), CellTiter-Glo; higher = more viable cells (100 = DMSO, 0 = benzethonium chloride kill control)
Procedure: (§2)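 DSRT, 72 h incubation, CellTox Green / CellTiter-Glo readout. Signal is normalised to DMSO and benzethonium chloride controls. Value is the normalised response at dose 3.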

HCC1599 [19] = experiment: as above
Procedure: as §2

SK-BR-3 = experiment: as above
Procedure: as §2

HDQ-P1 [20] = experiment: as above
Procedure: as §2

MDA-MB-453 [21] = experiment: as above
Procedure: as §2

CAL-51 [22] = experiment: as above
Procedure: as §2

CAL-85-1 [23] = experiment: as above
Procedure: as §2

BT-474 [24] = experiment: as above
Procedure: as §2

MDA-MB-436 [25] = experiment: as above
Procedure: as §2

BT-549 [26] = experiment: as above
Procedure: as §2

MFM-223 [27] = experiment: as above
Procedure: as §2

DU-4475 [28] = experiment: as above
Procedure: as §2

HCC1143 [29] = experiment: as above
Procedure: as §2

MDA-MB-231 [30] = experiment: as above
Procedure: as §2

MCF-10A [31] = experiment: as above
Procedure: as §2

Hs578T [32] = experiment: as above
Procedure: as §2

MDA-MB-468 [33] = experiment: as above
Procedure: as §2

CAL-148 [34] = experiment: as above
Procedure: as §2

HCC1937 [35] = experiment: as above
Procedure: as §2

HCC1937 [36] = experiment: normalised response (% of control), CellTox Green; higher = less cell death (100 = DMSO, 0 = benzethonium chloride kill control)
In short: as §1

SMILES	normalised response (CAL-120 [1]) [%]	normalised response (HCC1599 [2]) [%]	normalised response (HDQ-P1 [3]) [%]	normalised response (MDA-MB-453 [4]) [%]	normalised response (CAL-51 [5]) [%]	normalised response (CAL-85-1 [6]) [%]	normalised response (BT-474 [7]) [%]	normalised response (MDA-MB-436 [8]) [%]	normalised response (BT-549 [9]) [%]	normalised response (MFM-223 [10]) [%]	normalised response (DU-4475 [11]) [%]	normalised response (HCC1143 [12]) [%]	normalised response (MDA-MB-231 [13]) [%]	normalised response (MCF-10A [14]) [%]	normalised response (Hs578T [15]) [%]	normalised response (MDA-MB-468 [16]) [%]	normalised response (CAL-148 [17]) [%]	normalised response (CAL-120 [18]) [%]	normalised response (HCC1599 [19]) [%]	normalised response (SK-BR-3) [%]	normalised response (HDQ-P1 [20]) [%]	normalised response (MDA-MB-453 [21]) [%]	normalised response (CAL-51 [22]) [%]	normalised response (CAL-85-1 [23]) [%]	normalised response (BT-474 [24]) [%]	normalised response (MDA-MB-436 [25]) [%]	normalised response (BT-549 [26]) [%]	normalised response (MFM-223 [27]) [%]	normalised response (DU-4475 [28]) [%]	normalised response (HCC1143 [29]) [%]	normalised response (MDA-MB-231 [30]) [%]	normalised response (MCF-10A [31]) [%]	normalised response (Hs578T [32]) [%]	normalised response (MDA-MB-468 [33]) [%]	normalised response (CAL-148 [34]) [%]	normalised response (HCC1937 [35]) [%]	normalised response (HCC1937 [36]) [%]
Cn1c(Nc2ccc(C(F)(F)F)cc2)nc2cc(Oc3ccnc(-c4ncc(C(F)(F)F)[nH]4)c3)ccc21 [RAF265] (10 nM)	101	107	52.6	108	92.7	106	96.2	90.1	98.1	103	103	116	104	64.3	98	158	103	107	116	108	99.2	106	83.3	99.6	107	109	99.5	105	105	102	110	118	106	102	113	100	–
CS(=O)(=O)c1ccc(C2=C(c3ccccc3)C(=O)OC2)cc1 [Rofecoxib] (100 nM)	104	101	–	106	111	107	104	104	95.7	88.2	108	98.7	117	88.5	103	118	101	104	99	110	98.7	108	105	102	101	105	106	104	102	108	106	114	109	104	109	95.8	68.7
CN(N=O)C(=O)N[C@@H](C=O)[C@@H](O)[C@H](O)[C@H](O)CO [Streptozocin] (100 nM)	107	104	–	104	105	107	103	111	107	75.2	105	114	113	64.2	52.8	124	–	109	104	102	107	103	106	104	102	101	100	103	102	106	112	109	109	98.8	107	99.8	73.6
Oc1nc(-c2ccc(C(F)(F)F)cc2)nc2c1CSCC2 [XAV-939] (100 nM)	101	101	–	105	90.2	111	101	102	98.8	96.6	102	108	100	95.1	109	130	99.6	96.3	92.3	99.1	106	98.2	77.1	99.6	93.2	102	103	97	99.8	104	90.9	98.5	101	92	101	92.9	104
